The subject of the test is B16F10 tumor-bearing mice. The test is described as follows: Luciferase expression tumor/whole body after intratumoral injection, B16F10 tumor-bearing mice. In kind it is in vivo, C57BL/6 mice. The conditions noted are these: for LNP (tumor/whole body)% ratio of luciferase expression: cationic lipid:DSPC:PEG-DMG:cholesterol 50:10:1.5:38.5 (groups 1-1 to 1-3); for LNP (tumor/whole body)% ratio of luciferase expression / LPP (tumor/whole body)% ratio of luciferase expression: 5 μg luciferase mRNA intratumoral, 6 hours; for LPP (tumor/whole body)% ratio of luciferase expression: cationic lipid:DSPC:PEG-DMG:cholesterol 50:10:1.5:38.5 (groups 1-4 to 1-6). Here is the method: (§1) Female C57BL/6 mice (Beijing Vital River Laboratory Animal Technology Co., Ltd.) of 6 weeks of age with a weight of around 20 g were used, and each mouse was injected subcutaneously unilaterally with 1×10^6 murine-derived cutaneous melanoma cells, B16F10 cells. When tumors grew to a size of about 450 mm^3, B16F10 tumor-bearing mice were divided into 6 groups (1-1, 1-2, 1-3, 1-4, 1-5, and 1-6 groups, with 3 mice per group), and LPP and LNP solutions (50 μL) containing 5 μg of luciferase mRNA prepared by the prescriptions were respectively taken and administered to the mice by intratumoral injection. 6 hours after the administration, mice were injected intraperitoneally with a 150 mg/kg […] substrate. The bioluminescence was measured in a Xenogen IVIS-200 imaging system 7 minutes after substrate injection to evaluate the expression and distribution of the luciferase mRNA in the mice.
as §1, with “into 8” for “into 6”, “groups (2-1, 2-2, 2-3, 2-4, 2-5, 2-6, 2-7,” for “groups (1-1, 1-2, 1-3, 1-4, 1-5,”, “and 2-8” for “and 1-6”, “and” for “and LPP and LNP”
as §1, with “mm^3, the” for “mm^3, B16F10 tumor-bearing”, “into 8” for “into 6”, “groups (3-1, 3-2, 3-3, 3-4, 3-5, 3-6, 3-7, 3-8” for “groups (1-1, 1-2, 1-3, 1-4, 1-5, and 1-6”, “and” for “and LPP and LNP”

Consider 3 compounds from patent US20250387486A1, “LIPID COMPOSITION” (STEMIRNA THERAPEUTICS CO., LTD., priority 2022, published 2025).

`CCCCCCCCC(CCCCCC)C(=O)OCCCCCCN(CCCCO)CCCCCCOC(=O)C(CCCCCC)CCCCCCCC` (stereo not shown) [ALC-0315, reference compound]: the “LNP (tumor/whole body)% ratio of luciferase expression” value came to 4.9% and the “LPP (tumor/whole body)% ratio of luciferase expression” value is on record as 11.2 ± 7.9%.
The corresponding values for `CCCCCCCCC(CCCCCCCC)OC(=O)CCCCCCCN(CCO)CCCCCCC(=O)OCc1ccc(CCCCCC)cc1` [SW-II-127] are 15.0 ± 18.5% and 25.7 ± 15.1%.
Turning to `CCCCCCCCCOC(=O)CCCCCCCN(CCO)CCCCCCCC(=O)OCCCc1ccc(CCCCC)c(CCCCC)c1` [SW-II-135-1], the “LNP (tumor/whole body)% ratio of luciferase expression” value is listed as 43.6 ± 34.7% and the “LPP (tumor/whole body)% ratio of luciferase expression” value came out at 58.6 ± 36.4%. For the same compound, the “ratio of luciferase expression of tumor/whole body, rank among cationic lipids” value (Example 3, versus ALC-0315 and SW-II-127) is “highest ratio of luciferase expression of tumor/whole body”.
